{"source": "paper PMC5620277", "about": "“The histone methyltransferase EZH2 as a druggable target in SHH medulloblastoma cancer stem cells” (Oncotarget, 2017)", "key": {"G9a": {"molecular_target": "T1, G9a (Homo sapiens, UniProt Q96KQ7)", "T1 sequence (Q96KQ7 1-1210)": "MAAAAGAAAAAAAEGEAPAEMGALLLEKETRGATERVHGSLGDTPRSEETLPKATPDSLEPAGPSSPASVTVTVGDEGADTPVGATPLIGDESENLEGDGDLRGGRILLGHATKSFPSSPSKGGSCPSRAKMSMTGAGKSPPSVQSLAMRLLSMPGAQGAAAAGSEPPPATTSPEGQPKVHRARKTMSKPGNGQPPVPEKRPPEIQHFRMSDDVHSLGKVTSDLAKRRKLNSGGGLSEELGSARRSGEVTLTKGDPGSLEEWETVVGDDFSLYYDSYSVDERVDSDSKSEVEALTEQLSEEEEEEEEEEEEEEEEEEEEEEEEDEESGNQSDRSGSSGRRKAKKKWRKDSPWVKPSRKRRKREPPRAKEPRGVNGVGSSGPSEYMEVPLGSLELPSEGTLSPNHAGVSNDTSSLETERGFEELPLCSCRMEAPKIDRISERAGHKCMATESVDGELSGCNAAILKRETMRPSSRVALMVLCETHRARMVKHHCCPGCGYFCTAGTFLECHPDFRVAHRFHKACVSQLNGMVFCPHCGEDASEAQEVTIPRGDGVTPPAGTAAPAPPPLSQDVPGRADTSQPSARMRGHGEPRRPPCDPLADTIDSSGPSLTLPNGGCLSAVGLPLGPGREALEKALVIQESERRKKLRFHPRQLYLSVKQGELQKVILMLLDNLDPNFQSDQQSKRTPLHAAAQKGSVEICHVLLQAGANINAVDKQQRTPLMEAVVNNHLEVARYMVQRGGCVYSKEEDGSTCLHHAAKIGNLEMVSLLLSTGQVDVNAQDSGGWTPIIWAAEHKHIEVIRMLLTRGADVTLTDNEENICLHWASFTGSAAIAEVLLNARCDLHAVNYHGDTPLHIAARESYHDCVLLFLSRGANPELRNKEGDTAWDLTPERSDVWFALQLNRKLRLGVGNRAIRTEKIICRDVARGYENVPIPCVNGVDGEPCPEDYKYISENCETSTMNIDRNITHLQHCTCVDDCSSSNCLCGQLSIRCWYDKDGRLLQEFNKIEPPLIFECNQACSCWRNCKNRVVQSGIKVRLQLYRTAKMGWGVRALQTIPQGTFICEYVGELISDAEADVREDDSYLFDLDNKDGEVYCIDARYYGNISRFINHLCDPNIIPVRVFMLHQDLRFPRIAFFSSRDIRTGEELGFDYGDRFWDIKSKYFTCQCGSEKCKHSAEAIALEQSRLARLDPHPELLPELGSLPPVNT", "test": "Methyltransferase panel: G9a", "format": "biochemical", "conditions": "substrate histone H3 1-21", "experimental": "MC3629 was tested in the cell free enzymatic assay (EZH2/PRC2) in 10-dose IC50 mode with 2-fold serial dilution starting from 400 μM solution, using various histone substrates (histone H3/H4 octamer, histone H3/H4 tetramer, histone H3, and core histone) and SAM as the co-substrate. […] (Figure 2B, and Supplementary Figure 2).\nThe appropriate methyltransferase (MT) substrate (0.05 mg/ml core histone for EZH1 complex, 0.05 mg/ml oligonucleosomes for DOT1L, 5 μM histone H3 (1-21) peptide for G9a, 0.05 mg/ml nucleosomes for MLL1 complex, 0.05 mg/ml core histone for SET7/9, 5 μM histone H4 for PRMT1, and 0.001 mg/ml poly(dI-dC) for DNMT1) was added in freshly prepared Reaction Buffer (50 mM Tris-HCl (pH 8.5), 5 mM MgCl2, 50 mM NaCl, 0.01% Brij35, 1 mM DTT, 1% DMSO). The MT enzyme was delivered into the substrate solution and the mixture was mixed gently. Afterwards, the tested compound dissolved in DMSO was delivered into the enzyme/substrate reaction mixture by using Acoustic Technology (Echo 550, LabCyte Inc. Sunnyvale, CA) in nanoliter range, and 1 μM ^3H-SAM was also added into the reaction mixture to initiate the reaction. The reaction mixture was incubated for 1 h at 30°C and then it was delivered to filter-paper for detection. The data were analyzed using Excel and GraphPad Prism software for IC50 curve fits (for EZH1 complex)."}, "mMB-SLCs": {"test_system": "mMB-SLCs", "test": "Western Blot of H3K27me3, PCNA, cleaved caspase 3 in mMB-SLCs", "format": "cell-based, mouse", "conditions": "48 h", "experimental": "Afterwards, we tested the ability of MC3629 (at 0.5, 5, and 25 μM) to inhibit the EZH2 enzymatic activity on a cell-based assay in vitro. The lower significant MC3629 dosage to decrease the H3K27me3 level in MB-SLCs was 5 μM (Figure 2C).\nTo evaluate cell viability cells were plated at a density of 5×10^3 cells/well in 96-well plates and were incubated with MTS solution (CellTiter 96® AQueous One Solution Promega).\nWestern blots were performed according to standard procedures. Briefly, protein lysates were prepared using RIPA buffer with fresh protease inhibitors. Lysates were separated on SDS polyacrylamide gels. Proteins were transferred on nitrocellulose membrane (0.45 micron) (PerkinElmer). Membranes were blocked for 1 h at room temperature in 5% nonfat dry milk and incubated overnight at 4°C with antibodies against EZH2 (4905S Cell signaling), H3K27me3 (07-449 Millipore), PCNA (2586 Cell signaling), ACTIN (I-19 sc-1616; Santa Cruz Biotechnology), GAPDH (ab9484, Abcam), cleaved CSP-3 (D-175 9661S; Cell Signaling) and H3 (ab1971, Abcam). HRP-conjugated secondary antibodies (Santa Cruz Biotechnology) were used in combination with enhanced chemiluminescence (ECL Amersham)."}, "[1]": {"test": "PAMPA-BBB (porcine brain lipid extract artificial membrane)", "format": "in vitro ADME", "experimental": "Donor solution (500 μM or 250 μM) was prepared by diluting 10 or 5 mM DMSO compound stock solution using phosphate buffer (pH 7.4, 0.01 M). Filter membrane was coated with 5 μl of BBB-specific lipid solution prepared dissolving 16 mg of PBL (Avanti Lipids Polar, 141101P) in 600 μl of n-dodecane. Donor solution (150 μl) was added to each well of the filter plate. To each well of the acceptor plate 300 μl of solution (5% DMSO in phosphate buffer) were added. Each compound was tested in triplicate. The sandwich was incubated for 24 h at room temperature under gentle shaking. After the incubation time, the sandwich plates were separated and 250 μl of the acceptor plate were transferred to a UV quartz microtiter plate and measured by UV spectroscopy, using a Multiskan GO microplate spectrophotometer (Thermo Scientific) at 250−500 nm at step of 5 nm. Reference solutions (250 μl) were prepared diluting the sample stock solutions to the same concentration as that with no membrane barrier. The BBB permeability value Log Pe is determined applying the equation:\nlog Pe= log{C⋅(−ln(1−[drug]acceptor/[drug]equilibrium))},\nwhere C=(VD⋅VA/(VD+VA)area⋅time)\nIn this equation, VA is the volume of the acceptor compartment (0.3 cm^3), VD is the donor volume (0.15 cm^3), area is the accessible filter area (0.24 cm^2), and time is the incubation time in seconds."}}, "data": [{"molecule": "Cc1cc(C)c(CNC(=O)c2cnn(-c3ccccc3)c2C)c(=O)[nH]1", "note": "[MC3629, N-((4,6-dimethyl-2-oxo-1,2-dihydropyridin-3-yl)methyl)-5-methyl-1-phenyl-1H-pyrazole-4-carboxamide]", "values": [{"measurement": "inhibition at 200 µM", "setting": "G9a", "result": 5.1, "unit": "%"}, {"measurement": "H3K27me3 and PCNA protein levels", "setting": "mMB-SLCs; mMB-SLCs, 5 μM", "result": "significantly impaired"}, {"measurement": "apoptosis, level of cleaved caspase 3", "setting": "mMB-SLCs; mMB-SLCs, 5 μM", "result": "induced apoptosis"}, {"measurement": "lower significant dosage to decrease the H3K27me3 level", "setting": "mMB-SLCs; tested at 0.5, 5, 25 μM", "result": 5, "unit": "µM"}, {"measurement": "Papp at 24 h", "setting": "[1]; Pe in cm/s, pH 7.4, 24 h, room temperature, triplicate, read-out: Log Pe (converted)", "result": 4.68, "unit": "×10⁻⁶ cm/s"}, {"measurement": "Δ Log Pe", "setting": "[1]; respect to propranolol", "result": "−0.12"}]}]}
